In patent US20260256792A1, “TREATMENT OF CHRONIC SPONTANEOUS URTICARIA BY ADMINISTERING (R)-2-[3-[4-AMINO-3-(2-FLUORO-4-PHENOXY-PHENYL)PYRAZOLO[3,4-D]PYRIMIDIN-1-YL]PIPERIDINE-1-CARBONYL]-4-METHYL-4-[4-(OXETAN-3-YL)PIPERAZIN-1-YL]PENT-2-ENENITRILE” (priority 2023, published 2026):

System: moderate-to-severe chronic spontaneous urticaria (CSU)
Assay: Phase 2 CSU study: urticaria activity score over 7 days (UAS7)
Assay type: in vivo, human
Design: key to UAS7 Median / UAS7 Change from baseline Median / UAS7 change from baseline, Q1 / UAS7 change from baseline, Q3 / UAS7 change from baseline, Max / UAS7 Change from baseline LS Mean (SE): UAS7 points; daily UAS score ranges 0–6 points/day, over 7 days
From the text: The study comprises a 12 week, randomized, double-blind, placebo-controlled, multi-center, dose-ranging efficacy and safety phase, followed by a 40 week open label extension (OLE) phase (see FIG. 1). The study consists of three phases and an optional OLE phase. […] Clinically, CSU is characterized by the spontaneous and recurrent appearance of pruritic hives. The proposed primary endpoints were the UAS7 at Week 12 in EU and EU reference countries and the ISS7 in the US. Regardless of where a participant was from, all assessments were the same. The UAS7 score is a composite score containing both the HSS7 and the ISS7. This allowed a global assessment of the two key components of urticaria: hives and itch. […] The UAS is a validated PRO measure. […] The daily UAS scores range from 0 to 6 point/day. […] Patients were to complete the UAS using the e-diary. […] The following secondary endpoints were to be analyzed using the same approach as for the primary endpoint: • Change from baseline in UAS7 at Week 4 • Change from baseline in UAS7 at Week 12 (for US and US reference countries) • Change from baseline in ISS7 at Week 12 (except US and US reference countries) • Change from baseline in HSS7 at Week 12 The following responder secondary endpoints were to be analyzed using the Cochran-Mantel-Haenszel test adjusted by region: • Proportion of participants with UAS7<6 at Week 12 • Proportion of participants with UAS7=0 at Week 12 Participants who received selected prohibited medications and/or rescue medications were to be considered as non-responders for time points after the medication usage. For other participants, all available data including those collected during the off-treatment period were to be used to determine the responder/non-responder status. Missing data were to be considered as non-responders.

[1] = ITT Population, 400 mg TID, Week 1
[2] = ITT Population, 400 mg TID, Week 12
[3] = ITT population, 400 mg BID, Week 1
[4] = ITT population, 400 mg BID, Week 3
[5] = ITT population, 400 mg BID, Week 4
[6] = ITT population, 400 mg BID, Week 5
[7] = ITT population, 400 mg BID, Week 6
[8] = ITT population, 400 mg BID, Week 7
[9] = ITT population, 400 mg BID, Week 8
[10] = ITT population, 400 mg BID, Week 9
[11] = ITT population, 400 mg BID, Week 10
[12] = ITT population, 400 mg BID, Week 11
[13] = ITT population, 400 mg BID, Week 12
[14] = ITT population, 400 mg QPM, Week 1
[15] = ITT population, 400 mg QPM, Week 2
[16] = ITT population, 400 mg QPM, Week 4
[17] = ITT population, 400 mg QPM, Week 6
[18] = ITT population, 400 mg QPM, Week 7
[19] = ITT population, 400 mg QPM, Week 8
[20] = ITT population, 400 mg QPM, Week 9
[21] = ITT population, 400 mg QPM, Week 10
[22] = ITT population, 400 mg QPM, Week 11
[23] = ITT population, 400 mg QPM, Week 12
[24] = ITT population, 400 mg TID, Week 2
[25] = ITT population, 400 mg TID, Week 3
[26] = ITT population, 400 mg TID, Week 4
[27] = ITT population, 400 mg TID, Week 5

## CC(C)(C=C(C#N)C(=O)N1CCC[C@@H](n2nc(-c3ccc(Oc4ccccc4)cc3F)c3c(N)ncnc32)C1)N1CCN(C2COC2)CC1 [rilzabrutinib, (R)-2-[3-[4-amino-3-(2-fluoro-4-phenoxy-phenyl)pyrazolo[3,4-d]pyrimidin-1-yl]piperidine-1-carbonyl]-4-methyl-4-[4-(oxetan-3-yl)piperazin-1-yl]pent-2-enenitrile]
ITT Population, 400 mg QPM, Week 5
  UAS7 Post-baseline Mean (SD): 20.58 (9.05)
[1]
  UAS7 % Change difference for rilzabrutinib vs. placebo LS Mean (95% CI): −29.94%
  UAS7 % Change from baseline LS Mean (SE): −40.18%
  UAS7 Change from baseline LS Mean (SE): −12.72
  UAS7 Post-baseline Mean (SD): 16.95 (10.13)
[2]
  UAS7 % Change difference for rilzabrutinib vs. placebo LS Mean (95% CI): −26.23%
  UAS7 % Change from baseline LS Mean (SE): −59.16%
  UAS7 Change difference for rilzabrutinib vs. placebo LS Mean (95% CI): −6.76
  UAS7 Change from baseline LS Mean (SE): −17.95
[3]
  UAS7 % Change difference for rilzabrutinib vs. placebo LS Mean (95% CI): −23.93%
  UAS7 % Change from baseline LS Mean (SE): −34.18%
  UAS7 Change difference for rilzabrutinib vs. placebo LS Mean (95% CI): −6.18
  UAS7 Change from baseline LS Mean (SE): −10.01
  UAS7 Post-baseline Mean (SD): 19.98 (11.35)
[4]
  UAS7 % Change difference for rilzabrutinib vs. placebo LS Mean (95% CI): −18.34%
  UAS7 % Change from baseline LS Mean (SE): −39.97%
  UAS7 Change difference for rilzabrutinib vs. placebo LS Mean (95% CI): −4.74
  UAS7 Change from baseline LS Mean (SE): −12.33
  UAS7 Post-baseline Mean (SD): 17.63 (12.02)
[5]
  UAS7 % Change difference for rilzabrutinib vs. placebo LS Mean (95% CI): −20.76%
  UAS7 % Change from baseline LS Mean (SE): −44.02%
  UAS7 Change difference for rilzabrutinib vs. placebo LS Mean (95% CI): −5.34
  UAS7 Change from baseline LS Mean (SE): −13.41
  UAS7 Post-baseline Mean (SD): 15.62 (12.20)
[6]
  UAS7 % Change difference for rilzabrutinib vs. placebo LS Mean (95% CI): −10.88%
  UAS7 % Change from baseline LS Mean (SE): −42.67%
  UAS7 Change difference for rilzabrutinib vs. placebo LS Mean (95% CI): −2.61
  UAS7 Change from baseline LS Mean (SE): −12.81
  UAS7 Post-baseline Mean (SD): 16.44 (13.70)
[7]
  UAS7 % Change difference for rilzabrutinib vs. placebo LS Mean (95% CI): −14.76%
  UAS7 % Change from baseline LS Mean (SE): −41.66%
  UAS7 Change difference for rilzabrutinib vs. placebo LS Mean (95% CI): −3.64
  UAS7 Change from baseline LS Mean (SE): −12.78
  UAS7 Post-baseline Mean (SD): 16.51 (12.98)
[8]
  UAS7 % Change difference for rilzabrutinib vs. placebo LS Mean (95% CI): −20.46%
  UAS7 % Change from baseline LS Mean (SE): −47.80%
  UAS7 Change difference for rilzabrutinib vs. placebo LS Mean (95% CI): −5.50
  UAS7 Change from baseline LS Mean (SE): −14.56
  UAS7 Post-baseline Mean (SD): 15.04 (12.35)
[9]
  UAS7 % Change difference for rilzabrutinib vs. placebo LS Mean (95% CI): −21.40%
  UAS7 % Change from baseline LS Mean (SE): −53.24%
  UAS7 Change difference for rilzabrutinib vs. placebo LS Mean (95% CI): −5.61
  UAS7 Change from baseline LS Mean (SE): −15.96
  UAS7 Post-baseline Mean (SD): 13.59 (13.23)
[10]
  UAS7 % Change difference for rilzabrutinib vs. placebo LS Mean (95% CI): −24.16%
  UAS7 % Change from baseline LS Mean (SE): −52.21%
  UAS7 Change difference for rilzabrutinib vs. placebo LS Mean (95% CI): −5.85
  UAS7 Change from baseline LS Mean (SE): −15.45
  UAS7 Post-baseline Mean (SD): 14.13 (14.43)
[11]
  UAS7 % Change difference for rilzabrutinib vs. placebo LS Mean (95% CI): −17.60%
  UAS7 % Change from baseline LS Mean (SE): −51.13%
  UAS7 Change difference for rilzabrutinib vs. placebo LS Mean (95% CI): −4.46
  UAS7 Change from baseline LS Mean (SE): −15.36
  UAS7 Post-baseline Mean (SD): 14.82 (14.24)
[12]
  UAS7 % Change difference for rilzabrutinib vs. placebo LS Mean (95% CI): −19.11%
  UAS7 % Change from baseline LS Mean (SE): −49.87%
  UAS7 Change difference for rilzabrutinib vs. placebo LS Mean (95% CI): −4.55
  UAS7 Change from baseline LS Mean (SE): −14.95
  UAS7 Post-baseline Mean (SD): 14.55 (13.86)
[13]
  UAS7 % Change difference for rilzabrutinib vs. placebo LS Mean (95% CI): −16.41%
  UAS7 % Change from baseline LS Mean (SE): −49.34%
  UAS7 Change difference for rilzabrutinib vs. placebo LS Mean (95% CI): −3.62
  UAS7 Change from baseline LS Mean (SE): −14.82
  UAS7 Post-baseline Mean (SD): 14.70 (14.29)
[14]
  UAS7 % Change difference for rilzabrutinib vs. placebo LS Mean (95% CI): −12.22%
  UAS7 % Change from baseline LS Mean (SE): −22.47%
  UAS7 Change difference for rilzabrutinib vs. placebo LS Mean (95% CI): −3.61
  UAS7 Change from baseline LS Mean (SE): −7.44
  UAS7 Post-baseline Mean (SD): 23.84 (8.66)
[15]
  UAS7 % Change difference for rilzabrutinib vs. placebo LS Mean (95% CI): −6.32%
  UAS7 % Change from baseline LS Mean (SE): −25.19%
  UAS7 Change difference for rilzabrutinib vs. placebo LS Mean (95% CI): −1.80
  UAS7 Change from baseline LS Mean (SE): −8.14
  UAS7 Post-baseline Mean (SD): 23.40 (8.85)
[16]
  UAS7 % Change difference for rilzabrutinib vs. placebo LS Mean (95% CI): −5.97%
  UAS7 % Change from baseline LS Mean (SE): −29.23%
  UAS7 Change difference for rilzabrutinib vs. placebo LS Mean (95% CI): −1.48
  UAS7 Change from baseline LS Mean (SE): −9.55
  UAS7 Post-baseline Mean (SD): 21.82 (8.73)
[17]
  UAS7 % Change difference for rilzabrutinib vs. placebo LS Mean (95% CI): −7.24%
  UAS7 % Change from baseline LS Mean (SE): −34.14%
  UAS7 Change difference for rilzabrutinib vs. placebo LS Mean (95% CI): −1.88
  UAS7 Change from baseline LS Mean (SE): −11.02
  UAS7 Post-baseline Mean (SD): 20.12 (10.28)
[18]
  UAS7 % Change difference for rilzabrutinib vs. placebo LS Mean (95% CI): −7.16%
  UAS7 % Change from baseline LS Mean (SE): −34.50%
  UAS7 Change difference for rilzabrutinib vs. placebo LS Mean (95% CI): −1.89
  UAS7 Change from baseline LS Mean (SE): −10.95
  UAS7 Post-baseline Mean (SD): 20.98 (9.91)
[19]
  UAS7 % Change difference for rilzabrutinib vs. placebo LS Mean (95% CI): −3.38%
  UAS7 % Change from baseline LS Mean (SE): −35.22%
  UAS7 Change difference for rilzabrutinib vs. placebo LS Mean (95% CI): −0.53
  UAS7 Change from baseline LS Mean (SE): −10.88
  UAS7 Post-baseline Mean (SD): 21.01 (10.40)
[20]
  UAS7 % Change difference for rilzabrutinib vs. placebo LS Mean (95% CI): −8.48%
  UAS7 % Change from baseline LS Mean (SE): −36.53%
  UAS7 Change difference for rilzabrutinib vs. placebo LS Mean (95% CI): −1.73
  UAS7 Change from baseline LS Mean (SE): −11.33
  UAS7 Post-baseline Mean (SD): 20.18 (10.10)
[21]
  UAS7 % Change difference for rilzabrutinib vs. placebo LS Mean (95% CI): −3.82%
  UAS7 % Change from baseline LS Mean (SE): −37.35%
  UAS7 Change difference for rilzabrutinib vs. placebo LS Mean (95% CI): −0.76
  UAS7 Change from baseline LS Mean (SE): −11.66
  UAS7 Post-baseline Mean (SD): 20.15 (10.55)
[22]
  UAS7 % Change difference for rilzabrutinib vs. placebo LS Mean (95% CI): −5.62%
  UAS7 % Change from baseline LS Mean (SE): −36.39%
  UAS7 Change difference for rilzabrutinib vs. placebo LS Mean (95% CI): −0.52
  UAS7 Change from baseline LS Mean (SE): −10.92
  UAS7 Post-baseline Mean (SD): 21.08 (11.00)
[23]
  UAS7 % Change difference for rilzabrutinib vs. placebo LS Mean (95% CI): −2.09%
  UAS7 % Change from baseline LS Mean (SE): −35.03%
  UAS7 Change difference for rilzabrutinib vs. placebo LS Mean (95% CI): 0.97
  UAS7 Change from baseline LS Mean (SE): −10.22
  UAS7 Post-baseline Mean (SD): 21.80 (10.94)
[24]
  UAS7 % Change difference for rilzabrutinib vs. placebo LS Mean (95% CI): −29.83%
  UAS7 % Change from baseline LS Mean (SE): −48.69%
  UAS7 Change difference for rilzabrutinib vs. placebo LS Mean (95% CI): −8.72
  UAS7 Change from baseline LS Mean (SE): −15.06
  UAS7 Post-baseline Mean (SD): 14.58 (10.74)
[25]
  UAS7 % Change difference for rilzabrutinib vs. placebo LS Mean (95% CI): −28.32%
  UAS7 % Change from baseline LS Mean (SE): −49.95%
  UAS7 Change difference for rilzabrutinib vs. placebo LS Mean (95% CI): −7.56
  UAS7 Change from baseline LS Mean (SE): −15.15
  UAS7 Post-baseline Mean (SD): 14.42 (9.77)
[26]
  UAS7 % Change difference for rilzabrutinib vs. placebo LS Mean (95% CI): −25.68%
  UAS7 % Change from baseline LS Mean (SE): −48.94%
  UAS7 Change difference for rilzabrutinib vs. placebo LS Mean (95% CI): −6.71
  UAS7 Change from baseline LS Mean (SE): −14.78
  UAS7 Post-baseline Mean (SD): 13.93 (9.77)
[27]
  UAS7 % Change difference for rilzabrutinib vs. placebo LS Mean (95% CI): −22.21%
  UAS7 % Change from baseline LS Mean (SE): −54.01%
  UAS7 Change difference for rilzabrutinib vs. placebo LS Mean (95% CI): −6.47
